The target of series [1] is Serotonin 3 (5-HT3) receptor. Description: Antagonistic activity against Serotonin 5-hydroxytryptamine 3 receptor of isolated guinea pig ileum (GPI). It is filed as functional, tissue-based, Cavia porcellus.
In series [2] the target is Serotonin 3 (5-HT3) receptor. Nature of the series: (§1) Evaluated for the antagonistic activity against Serotonin 5-hydroxytryptamine 3 receptor in isolated perfused rabbit heart (RH). Type of series: functional, Oryctolagus cuniculus.
Series [3] has as its target Serotonin 3 (5-HT3) receptor. Nature of the series: Antagonistic activity against Serotonin 5-hydroxytryptamine 3 receptor in isolated rabbit vagus nerve (RVN). It is filed as functional, tissue-based, Oryctolagus cuniculus.
The target in series [4] is 5-hydroxytryptamine receptor 4 (Cavia porcellus) (UniProt O70528). Nature of the series: Agonistic activity against Serotonin 5-hydroxytryptamine 4 receptor in low frequency field stimulation of guinea-pig ileum (FSGPI). It is filed as functional, tissue-based.
For series [5] the target is unchanged. Description: Agonistic activity against Serotonin 5-hydroxytryptamine 4 receptor in non-electrically stimulated guinea-pig ileum. It is filed as functional, tissue-based.
The target of series [6] is T1, Serotonin 3 receptor (5HT3) (Mus musculus) (UniProt Q9JHJ5+P23979). Nature of the series: Compound was evaluated for binding to Serotonin 5-hydroxytryptamine 3 receptor in N1E cells using [3H]- -Tropisetron as radioligand. Type of series: cell-based.
Series [7] in a line: pKa value was determined. It is filed as physicochemical.
A further series is filed under the species Rattus norvegicus. Nature of the series: Effective dose inhibited the Bezold-Jarisch reflex in rats was determined. Type of series: functional.
The target in series [8] is 5-hydroxytryptamine receptor 4 (Cavia porcellus, UniProt O70528). Description: Evaluated for the antagonistic activity against Serotonin 5-hydroxytryptamine 4 receptor in non-electrically stimulated guinea-pig ileum. It is filed as functional, tissue-based. Particulars: read-out: pA2 (converted).
The target of series [9] is 5-hydroxytryptamine receptor 4 (Cavia porcellus) (UniProt O70528). As to conditions: Ileum.
Description: pD2 value in the non-electrically stimulated guinea pig ileum
Series [10] has as its target Serotonin 3 (5-HT3) receptor. Nature of the series: Evaluated for the antagonistic activity against 5-hydroxytryptamine 3 receptor in isolated perfused rabbit heart (RH). It is filed as functional, Oryctolagus cuniculus.
Series [11] deals with Serotonin 3 (5-HT3) receptor. Description: Evaluated for the antagonistic activity against 5-hydroxytryptamine 3 receptor in isolated rabbit vagus nerve (RVN). Type of series: functional, tissue-based, Oryctolagus cuniculus.
Series [12] concerns the target 5-hydroxytryptamine receptor 4 (Cavia porcellus) (UniProt O70528). Nature of the series: Agonistic activity against Serotonin 5-HT4 receptor in low frequency field stimulation of guinea-pig ileum (FSGPI). Type of series: functional, tissue-based.
Series [13] addresses T2, Serotonin 3 (5-HT3) receptor (Homo sapiens) (UniProt P46098+A5X5Y0+O95264+Q70Z44+Q8WXA8). Description: Evaluated for the antagonistic activity against Serotonin 5-hydroxytryptamine 3 receptor in isolated guinea pig ileum (GPI). It is filed as functional, tissue-based. Particulars: Cavia porcellus, target entry is the homologue from another species.
Series [14] deals with T2, Serotonin 3 (5-HT3) receptor (Homo sapiens). Described as §1. It is filed as functional. Particulars: Oryctolagus cuniculus; target entry is the homologue from another species.
Series [15] has the same target. Nature of the series: Evaluated for the antagonistic activity against Serotonin 5-hydroxytryptamine 3 receptor in isolated rabbit vagus nerve (RVN). It is filed as functional, tissue-based. Particulars: Oryctolagus cuniculus, target entry is the homologue from another species.
The target of series [16] is 5-hydroxytryptamine receptor 4 (Cavia porcellus) (UniProt O70528). Description: Evaluated for the agonistic activity against Serotonin 5-HT4 receptor in non-electrically stimulated guinea-pig ileum. It is filed as functional, tissue-based.
For series [17] the target is unchanged. Particulars: Ileum. This is another data set of the same source.
Description: Evaluated for the agonistic activity against 5-HT4 receptor in non-electrically stimulated guinea-pig ileum.
Series [18] deals with T1, Serotonin 3 receptor (5HT3) (Mus musculus). Description: Compound was evaluated for binding to 5-hydroxytryptamine 3 receptor in N1E cells using [3H]- -Tropisetron as radioligand. It is filed as cell-based.

5-hydroxytryptamine receptor 4 (Cavia porcellus), sequence (O70528 whole entry, the tested form may be a part): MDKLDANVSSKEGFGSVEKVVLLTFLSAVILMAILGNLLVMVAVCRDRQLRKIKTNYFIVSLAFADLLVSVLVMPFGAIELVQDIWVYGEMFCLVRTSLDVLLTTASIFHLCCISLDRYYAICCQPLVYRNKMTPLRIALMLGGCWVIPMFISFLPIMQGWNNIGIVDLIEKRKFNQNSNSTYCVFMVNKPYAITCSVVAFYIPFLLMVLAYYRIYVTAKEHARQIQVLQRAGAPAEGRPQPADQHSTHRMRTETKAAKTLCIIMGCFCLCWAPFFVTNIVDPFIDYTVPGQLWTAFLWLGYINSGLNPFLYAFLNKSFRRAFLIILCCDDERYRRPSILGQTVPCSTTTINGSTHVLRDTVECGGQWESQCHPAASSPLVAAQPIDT
T1 sequence (P23979 whole entry, looked up): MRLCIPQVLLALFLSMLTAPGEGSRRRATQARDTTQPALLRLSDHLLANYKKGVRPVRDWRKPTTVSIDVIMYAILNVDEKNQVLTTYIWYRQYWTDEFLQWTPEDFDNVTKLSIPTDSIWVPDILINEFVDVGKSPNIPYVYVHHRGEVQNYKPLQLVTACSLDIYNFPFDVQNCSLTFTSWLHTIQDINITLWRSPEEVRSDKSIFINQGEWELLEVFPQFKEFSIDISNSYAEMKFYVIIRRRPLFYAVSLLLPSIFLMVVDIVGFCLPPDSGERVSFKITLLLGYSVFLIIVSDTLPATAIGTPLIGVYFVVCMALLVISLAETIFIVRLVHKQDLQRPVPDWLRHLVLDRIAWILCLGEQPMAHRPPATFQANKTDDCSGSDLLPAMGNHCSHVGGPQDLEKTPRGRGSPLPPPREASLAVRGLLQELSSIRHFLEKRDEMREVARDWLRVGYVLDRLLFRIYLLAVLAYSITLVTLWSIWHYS
T1 sequence (Q9JHJ5 whole entry, looked up): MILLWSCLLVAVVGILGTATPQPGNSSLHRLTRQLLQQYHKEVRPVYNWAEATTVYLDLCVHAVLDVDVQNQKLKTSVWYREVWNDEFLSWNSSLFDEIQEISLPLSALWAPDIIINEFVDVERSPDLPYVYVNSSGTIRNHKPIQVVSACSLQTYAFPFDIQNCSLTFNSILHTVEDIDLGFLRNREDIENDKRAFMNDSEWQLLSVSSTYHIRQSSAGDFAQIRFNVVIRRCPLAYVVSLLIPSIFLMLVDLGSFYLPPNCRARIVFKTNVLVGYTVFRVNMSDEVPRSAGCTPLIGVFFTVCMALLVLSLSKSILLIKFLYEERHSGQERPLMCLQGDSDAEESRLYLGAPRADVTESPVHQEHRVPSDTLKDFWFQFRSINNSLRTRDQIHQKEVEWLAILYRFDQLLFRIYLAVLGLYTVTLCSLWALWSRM
5-hydroxytryptamine receptor 4, sequence (O70528 whole entry): as the sequence (O70528 whole entry, the tested form may be a part) above

As a reminder, the pA2 is the negative logarithm of the molar antagonist concentration that doubles the agonist concentration needed for the same response. Regarding `COc1cc(N)c(Cl)cc1C(=O)N[C@H]1CCN(CCCOc2ccc(F)cc2)C[C@H]1OC` [CISAPRIDE], the pA2 in [1] was 7.2; in [2] it was 7.1; in [3], 6.5. In addition, the pD2 in series [4] is 6.

For `Nc1c(Cl)cc(C(=O)NC2CCN3CCCC2C3)c2nsnc12` (configuration not stated), the figures for the pA2 in [1] and in [3] were 6.8 and 7.7, respectively. In addition, the values for the pD2 in series [4] and in [5] were 7.2 and 6, respectively.

Consider `Nc1c(Cl)cc(C(=O)NC2CN3CCC2CC3)c2ncccc12` (configuration not stated), for which the pA2 is listed as 7.9 in series [1] and 9 in series [3]. The pD2 is 7.2 in series [4] and 6 in series [5].

Broadly, the pKD is the KD on a negative log10 scale, so that one unit is a factor of ten. Usually pKa stands for the pH at which an ionisable group is half protonated. As usually defined, the ED50 is the dose at which the effect has come halfway, by size or by number of responders. The low end stands for greater potency, the high end for weaker potency. `CN1[C@@H]2CC[C@H]1C[C@@H](OC(=O)c1c[nH]c3ccccc13)C2` [TROPISETRON] came in with a pKD in series [6] of 9.1. This molecule also registered a pKa in series [7] of 8.4. Also, it took a dose of 0.72 µg/kg to reach the 50% effect level in the series listed under Rattus norvegicus (ED50). In addition, in series [8], the Kb was 2 µM. This molecule yielded a pD2 in series [9] of 5.7.

Consider `CN1C2CC(OC(=O)c3c[nH]c4ccccc34)CC1C1OC12` (configuration not stated), for which the pA2 in series [1] worked out at 8.8; in [10], 11; in series [11], 10.6. Further, in series [6], the pKD came out at 9.2. Besides, in series [4], the pD2 came to 0. This molecule also gave a pKa in series [7] of 6.64. Moreover, the Kb in series [8] is 0.501 µM.

Turning to `COc1cc(N)c(Cl)cc1C(=O)NC1CN2CCC1CC2` (configuration not stated), the pD2 in [4] came to 6.2; in series [5], 5.9.

Take `COc1ccc2[nH]ccc2c1C(=O)NC1CN2CCC1CC2` (configuration not stated): the pA2 in series [1] is listed as 7.2. In addition, the pD2 came to 6.6 in series [4] and 7.1 in [5].

As for `N/C(Cc1c[nH]c2ccc(O)cc12)=N\CCc1c[nH]c2ccc(O)cc12`, the pD2 in [12] amounted to 6.3.

Turning to `NCCC1CCCc2ccc(O)cc21` (configuration not stated), the pD2 is 5.2 in series [13], 5.7 in series [14] and 6 in series [15].

Turning to `CCN(CC)CCOC(=O)c1cc(Cl)c(N)cc1OC`, the pD2 in [16] was 7.

Molecule `COc1cc(N)c(Cl)cc1C(=O)N[C@H]1CCN2CCC[C@@H]1C2` had a pA2 in series [2] of 8.6. For the same molecule, the pD2 in series [4] stood at 7.1; in series [5], 5.7.

`Nc1c(Cl)cc(C(=O)NC2CN3CCC2CC3)c2nsnc12` (configuration not stated): the pA2 was found to be 7.7 in [1] and 8.9 in series [3]. In addition, the pD2 in series [4] stood at 5.8; in series [5], 5.5.

In the case of `CCN(CC)Cc1coc(-c2cc(Cl)c(N)cc2OC)n1`, the pD2 in series [12] is 6.1; in [16], 6.

In [1], `Nc1c(Cl)cc(C(=O)NC2CCN3CCCC2C3)c2ncccc12` (configuration not stated) returned a pA2 of 6.7. Moreover, the pD2 in series [4] amounted to 7.5; in series [5], 7.1.

For the molecule `CCN(CC)CCN1CCc2cc(N)c(Cl)cc2C1=O`, the pD2 was 5.2 in series [12] and 5.1 in series [16].

Take `Cc1[nH]c2ccc(O)cc2c1CCN`: the pD2 in series [13] was found to be 5.1; in [14], 5.5; in series [15], 5.6.

Molecule `Cc1[nH]c2ccc(O)cc2c1CC(=N)NCCCN1CCCC1=O` returned a pD2 in [12] of 5.8.

Take `NCCc1c[nH]c2ccc(O)cc12`: the pD2 in series [12] came out at 7; in [17], 7.9.

On to `Cc1nccn1CC1CCc2c(c3ccccc3n2C)C1=O` (configuration not stated), for which the pKD in series [18] was 7.7. The pD2 in [4] was 5.1.

Turning to `O=C(CC1CC2CCC(C1)N2)c1c[nH]c2cc(O)ccc12` (configuration not stated), the pA2 in [1] stood at 6. In addition, the pD2 in series [14] was 6; in series [15] it was 7.

Turning to `CCN(CC)CCNC(=O)c1cc(Cl)c(N)cc1OC` [METOCLOPRAMIDE], the figures for the pA2 in series [1] and in series [2] were 5.2 and 7.1, respectively. Besides, the pD2 in series [4] stood at 5.5.

Consider `NCCc1ccnc2ccc(O)cc12`, for which the pD2 in [13] amounted to 4.5; in [15], 5.8.

`N#Cc1[nH]c2ccc(O)cc2c1CCN`: the figures for the pD2 in series [13], in [14] and in series [15] were 5.4, 4 and 7.2, respectively.
